Test results as given in publication PMC9145945, “Machine-Learning Guided Discovery of Bioactive Inhibitors of PD1-PDL1 Interaction” (Pharmaceuticals, 2022).
Several values for one entry are separate records, joined by “and”; a condition that tells them apart may be missing. Equal values may be shown once. Values belong to the compound of their own block, whether it stands above or below them.

Tests used:
[1] = biological target: T1, human PD1-PDL1 interaction (Homo sapiens, UniProt Q9NZQ7); details: Table S1; ref BMS Patent 1: WO2015034820A1; cited from earlier work
T1 construct: purchased Perkin Elmer
T1 sequence (Q9NZQ7 19-238 limits assumed): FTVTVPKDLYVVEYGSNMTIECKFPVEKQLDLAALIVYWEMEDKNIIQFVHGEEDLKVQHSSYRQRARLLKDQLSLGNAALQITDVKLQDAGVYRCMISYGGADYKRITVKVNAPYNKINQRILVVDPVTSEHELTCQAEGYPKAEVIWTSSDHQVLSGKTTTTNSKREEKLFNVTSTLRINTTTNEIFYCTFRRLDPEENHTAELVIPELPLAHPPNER

[2] = biological target: T1, human PD1-PDL1 interaction; assay: HTRF human PD1-PDL1 binding assay; details: for IC50: dose–response 0–100 µM
From the text: The homogeneous time-resolved fluorescence (HTRF) binding assay was used to test these top 20 molecules for their potential blockade of human PD1-PDL1 interaction. We have previously established the utility of the HTRF assay over similar homogenous assay like AlphaLISA, with the latter proving to be more promiscuous in identifying potential false positives against PD1-PDL1 target.
The potential activity of our virtual hits in inhibiting PD1-PDL1 interaction was investigated using the homogeneous time-resolved fluorescence (HTRF) binding assay from Perkin Elmer. The assay was carried out according to the manufacturer’s instructions using the HTRF protocol in BioTek Synergy Neo^TM microplate reader. […] The assay mixture with only PDL1 protein, but not PD1 protein served as a negative control denoting 0% PD1-PDL1 interaction. […] The dose–response data were analyzed using GraphPad Prism to determine IC50 values using nonlinear regression variable slope models.

protein kinase D (PKD) = biological target: protein kinase D (PKD); set-up: method as in PMID 20497126; details: VEGF-treated endothelial cells; read-out: IC50 against all three PKD isoforms; cited from earlier work
[3] = system: ceramide synthase 1 (CerS1); details: mice fed with high-fat diet; cited from earlier work
PD1-PDL1 interaction = system: PD1-PDL1 interaction; set-up: method as in PMID 34117723; details: read-out: IC50, PD1-PDL1 inhibitor; cited from earlier work
[4] = 25 µM single-dose test concentration

Compound: COc1cc(OCc2cccc(-c3ccccc3)c2C)cc(OC)c1CN1CCCC[C@H]1C(=O)O [Compound 1--1]
- Activity (classification used for ML modeling) [1]: ACTIVE

Compound: C[C@@](N)(CO)CCc1ccc(OCc2ccc(Cl)c(Cl)c2)cc1 [Compound 2]
- fatty acid oxidation in skeletal muscles [3]: increased fatty acid oxidation
- % PD1-PDL1 Inhibition [2, 4]: 41.4 ± 0.9%
- IC50 [2]: ~33.6 µM
- IC50 ([2]; listed as P053): 33.6 µM

Compound: Cc1cc(/C=C/c2ccc3cc(N(C)C)ccc3[n+]2C)c(C)n1-c1ccccc1 [Pyrvinium]
- IC50 (PD1-PDL1 interaction): ~29.7 µM

Second part, led by results:

- % PD1-PDL1 Inhibition [2, 4]: 50.9 ± 1.3%
- IC50 [2]: ~22 µM and ~22.4 µM
- IC50 ([2]; listed as CRT5): 22.4 µM
Compound: CCOc1ccc2cc(-c3cc(-c4cccc(C(=O)NCCN(C)C)c4)cnc3N)ccc2c1 [Compound 1]
- IC50 (protein kinase D (PKD)): 0.001 to 0.002 µM

- inhibition at 25 µM [2, 4]: -4.4 ± 1.2%
Compound: Cc1c(COc2ccc(CN3CCCCC3C(=O)O)cc2Br)cccc1-c1ccccc1 (centres unmarked) [Compound 18]
